Source: US4680382A, “Analogues of actinomycin D” (priority 1986, dated 1987)
*1 amine or outer side, *2 acyl side, *3 side chain or, on linkers, in order; H or OH if unused. Where a SMILES comes first, the peptide text is derived from it. Bridges are numbered along the chain shown (N, C = ends). Roman numbers before positions name the chains, in order. [ ]: non-standard residue; d: D form. Actinocin(9to1) = Cc1c2oc3c(C)ccc(C(=O)[*:1])c3nc-2c(C(=O)[*:2])c(N)c1=O; NMeV = CN[C@H](C(=O)O)C(C)C; Sar = CNCC(=O)O

Legend:
[1] = Metabolism of tritiated drugs in tumor cell homogenate (sonicated P388 cells); type: in vitro ADME, murine; conditions: tumor cell homogenate (T), 16 hr; for Percent isolated: unconverted: 37° C.
Protocol: (§1) A method of using tumor cell sonicates was developed to study the metabolism of the analogues of AMD. By use of sonicated cells, the dilution effects that would occur if flasks of cultured cells were used are avoided. Although the cells are disrupted by this method, their enzyme systems appear to remain active. Large numbers of tumor cells (P388 murine leukemia) were sonicated in Earle's balanced salt solution (EBSS) and were incubated with tritiated AMD and its analogues 7a and 9a (Table II) for 16 hr. In another experiment, the analogues were treated with rat hepatic microsomes at 37° C. for 6 hr in the presence of a NADPH-generating system. The metabolic products were isolated and identified with the following results (Table II). […] In the microsomes, the major metabolites were in unconjugated forms; in the tumor cell homogenates, the major identified metabolites were glucuronide and sulfate conjugated forms. It should be pointed out that in these metabolic experiments, the identification of these glucuronide and/or sulfate conjugates was made only on the basis of the disappearance of the peaks from the HPLC chromatograms upon treatment with deconjugating enzymes glucarase.
A large number of P388 cells (10^8 cells) were sonicated in Earle's balanced salt solution (EBSS) in ice. Tritiated analogues 7a, 8a and AMD, 0.4 Ci/mmol, were added and the mixtures were incubated at 37° C. for 16 hr. Drugs in EBSS without the addition of the cell sonicates served as controls. The samples were treated with urea to bring the urea concentration to 5M. The procedure helped to free all drugs that associated noncovalently with DNA. After 60 min at room temperature, the samples were centrifuged through Amicon 1053 cone filters (molecular weight cut-off approximately 25000) after adjustment of pH to 5 to facilitate extraction of unconjugated metabolites in organic solvents.
Unconjugated or uncoupled products were first extracted with ethyl acetate (step A) and aliquots of aqueous layers were treated with equal volumes of glucarase (a preparation of β-glucuronidase and sulfatase) or with buffer (control); see following section. The glucuronide and the sulfate derivatives were thus deconjugated and the freed products were extracted in ethyl acetate (step B). A highly sensitive technique for detection of a series of AMD analogues using HPLC was employed; sensitivity of this assay ranges from 50 nmol when UV-visible absorbances are used to 1 pmol when radioactive analogues of appropriate specific activities are used.
The products in the ethyl acetate extracts were analyzed by HPLC using system I. Prior to deconjugation, the above aqueous layers were examined by systems II and III, which are more suitable for the water-soluble metabolites.
The aqueous layers from step B were combined with the material which was left as residues in the cones in step A. The residues in the cones were extracted in dilute sodium hydroxide and separated from the cell debris by centrifugation (2500 rpm), and the biopolymers were precipitated from the extract with excess ethanol. The precipitated polymers, mostly protein, were lyophilized and dissolved in 0.05M Tris-HCl and were fractionated on Superfine Sephacryl S-200 and the molecular weights of the major fractions were approximated. The major parts of radioactivity were confined to high molecular weight proteins with molecular weights above 67000. The amount of the tissue-bound material was estimated from the pellets in the above centrifugation (2500 rpm). The percentages were calculated on the basis of the total radioactive materials recovered. In most cases, it was over 90%.

[2] = Metabolism of tritiated drugs by rat liver microsomes with NADPH-generating system; type: in vitro ADME; conditions: for Percent isolated: unconverted: 37° C.
Protocol: as §1
The incubation mixture consisted of 500 μg of microsomal protein 1.6 mM NADP^+, 16 mM glucose 6-phosphate, 10.1 U of glucose-6-phosphate dehydrogenase, 12 mM MgCl2, 10 mM sodium phosphate-potassium phosphate (pH 7.4) and 0.4-0.8 mM of tritiated drugs (including AMD) in a final volume of 5.0 mL. The mixtures were incubated at 37° C. for 6 hr, after which the reaction was stopped by chilling at 0° C. The chilled mixtures were filtered by centrifugation in tubes containing centriflow membrane cones (Amicon, 1053, molecular weight cut-off 25000). The filtrates were adjusted to pH 5.0 before extraction with water-saturated ethyl acetate (step A).
Equal aliquots of the aqueous layer (step A) were treated either with equal volumes of glucarase (5 mg/mL) in 0.05M acetate buffer, pH 5.0, overnight at 37° C. under nitrogen in a shaking water bath or with buffer alone (step B). The aqueous fractions from step B were mixed with an extract of the Amicon cone-retained material. The metabolites at each step were separated by HPLC (Table II). For extraction of the high molecular weight protein conjugates and other tissue-associated materials, the cones were soaked in 0.1N NaOH solution overnight at 0° C. and were processed as in the preceding section before gel filtration. A Sephacryl S-200 superfine column, 1.0× 60 cm, was made in 6M guanidine hydrochloride, pH 5.0, and the lyophilized material in minimum water, pH 7.0, was added to the top of the column and eluted overnight with 6M guanidine hydrochloride, pH 5.0, at a flow rate of 2 cm/hr. A 2% solution of blue dextran 2000 (100 μL, Pharmacia) was added to the column for calibration. Fractions were collected, and the distribution of the material in the fractions was determined by liquid scintillation counting. […] For assay of metabolites, a Varian Moden 5020 gradient liquid chromatograph equipped with a CD-111L chromatography data system was used.

[3] = tested on: P388 lymphocytic leukemia; assay: In vivo antitumor activity against P388 leukemia; parameters: species or system BDF1 mice; conditions: for surv (surviving mice/total mice at 60 days) / % ILS / MST (range): P388, at optimal dose; for % ILS: 100(T/C - 1); for MST (range): control 11.0 (9-12); for optimal dose: P388, ip, days 1, 5 and 9, optimal nontoxic dose

SMILES	Percent isolated: unconverted [1] [%]	Percent isolated: unconverted ([2]; rat liver microsomes (M), 6 hr) [%]	surv (surviving mice/total mice at 60 days) [3]	% ILS [3] [%]	MST (range) [3]	optimal dose [3] [μg/kg per inj]	Percent isolated: "tissue" bound [1] [%]	Percent isolated: protein conjugates [1] [%]	Percent isolated: unidentified metabolite [1] [%]	Percent isolated: "tissue" bound ([2]; rat liver microsomes (M), 6 hr) [%]	Percent isolated: protein conjugates ([2]; rat liver microsomes (M), 6 hr) [%]	Percent isolated: unidentified metabolite ([2]; rat liver microsomes (M), 6 hr) [%]	further results
Cc1c2oc3c(C)ccc(C(=O)N[C@@H]4C(=O)N[C@H](C(C)C)C(=O)N5CCC[C@H]5C(=O)N(C)CC(=O)N(C)[C@@H](C(C)C)C(=O)O[C@@H]4C)c3nc-2c(C(=O)N[C@@H]2C(=O)N[C@H](C(C)C)C(=O)N3CCC[C@H]3C(=O)N(C)CC(=O)N(C)[C@@H](C(C)C)C(=O)O[C@@H]2C)c(N)c1=O [AMD, Actinomycin D] (I: T[dV]P[Sar][NMeV] / II: T[dV]P[Sar][NMeV]; ester I:1-I:C, II:1-II:C; linker I:N-II:N via Actinocin(9to1))	100	100	1/8	136	26.0 (16-37) days	300.0	–	–	–	–	–	–	formation of metabolite or conjugate ([2]; tumor cell homogenate and rat liver microsomes): did not form any detectable metabolite or conjugate
Cc1nc2c(C(=O)NC3C(=O)NC(C(C)C)C(=O)N4CCCC4C(=O)N(C)CC(=O)N(C)C(C(C)C)C(=O)OC3C)c3nc4c(C(=O)NC5C(=O)NC(C(C)C)C(=O)N6CCCC6C(=O)N(C)CC(=O)N(C)C(C(C)C)C(=O)OC5C)c(N)c(=O)c(C)c-4oc3c(C)c2o1 [7a, 7-Amino-2,9,11-trimethyl-8H-8-oxooxazolo [4,5-b]phenoxazine 4,6-bis[carbonyl-L-threonyl-D-valyl-L-prolylsarcosyl-L-N-methylvaline-(threonine hydroxyl)] lactone]	40	21	3/8	277	42.5 (39-43) days	450.0	8.8	5.5	12.7	3.7	3.5	8.5	Percent metabolite isolated: 4a glucuronide and/or sulfate [1]: 17.5%; Percent metabolite isolated: "symmetrical" AMD (4a) [1]: 15.5%; Percent metabolite isolated: 4a glucuronide and/or sulfate ([2]; rat liver microsomes (M), 6 hr): nil; Percent metabolite isolated: "symmetrical" AMD (4a) ([2]; rat liver microsomes (M), 6 hr): 62.5%
Cc1nc2c(C(=O)NC3C(=O)NC(C(C)C)C(=O)N4CCCC4C(=O)N(C)CC(=O)N(C)C(C(C)C)C(=O)OC3C)c3nc4c(C(=O)NC5C(=O)NC(C(C)C)C(=O)N6CCCC6C(=O)N(C)CC(=O)N(C)C(C(C)C)C(=O)OC5C)cc(=O)c(C)c-4oc3c(C)c2o1 (stereo not shown) [9a]	20	38.5	0/0	164	29.0 (19-58) days	1200.0	7.5	5.5	46.3	5.5	9.5	6	Percent metabolite isolated: 2a glucuronide and/or sulfate [1]: 12.2%; Percent metabolite isolated: 7-hydroxy-AMD (2a) [1]: 8.5%; Percent metabolite isolated: 2a glucuronide and/or sulfate ([2]; rat liver microsomes (M), 6 hr): nil; Percent metabolite isolated: 7-hydroxy-AMD (2a) ([2]; rat liver microsomes (M), 6 hr): 40.5%
Cc1c2oc3c(C)c(O)c(N)c(C(=O)NC4C(=O)NC(C(C)C)C(=O)N5CCCC5C(=O)N(C)CC(=O)N(C)C(C(C)C)C(=O)OC4C)c3nc-2c(C(=O)NC2C(=O)NC(C(C)C)C(=O)N3CCCC3C(=O)N(C)CC(=O)N(C)C(C(C)C)C(=O)OC2C)c(N)c1=O (stereo not shown) [4a, 7-Hydroxy-8-amino-actinomycin D]	–	–	4/8	382	52.0 (48-55) days	600.0	–	–	–	–	–	–	–
